We go through 1 compound from patent US9375457B2, “Composition comprising Rhizoma coptidis, Cortex phellodendri and Fructus gardeniae and for treating neurodegenerative diseases” (Hong Kong Baptist University, priority 2013, dated 2016).

For data set [1], the system named is N2a-SwedAPP cells. Briefly: MTT viability assay in N2a-SwedAPP cells. Type of data set: cell-based, murine. As to conditions: mouse, 48 h. How it is done:
(§1) N2a-SwedAPP cells were obtained from Dr. Gopal Thinakaran (University of Chicago, Chicago, Ill., USA). N2a-SwedAPP cells were cultured in Dulbecco's modified Eagle's medium (DMEM) and OPTI-MEM medium in a 1:1 ratio with 5% FBS, 50 μg/mL penicillin, 50 μg/mL streptomycin and 200 μg/mL G418 as previously described in Thinakaran G, Teplow D B, Siman R, Greenberg B, Sisodia S S (1996) Metabolism of the “Swedish” amyloid precursor protein variant in neuro2a (N2a) cells. J Biol Chem 271: 9390-9397. N2a-SwedAPP cells were incubated at 37° C. in a 5% CO2/95% humidity incubator. Cells were seeded 24 hours prior to the treatments. When growth reached close to 90% of confluence, cells were transferred into DMEM with 1% FBS for loading extracts. The final concentration of DMSO in all experiments was 0.1%, and this concentration caused no cytotoxicity.
For the viability assay, N2a-SwedAPP cells were seeded in a 96-well plate (7000 cells/well and 5000 cells/well). […] Finally, optical intensity was measured using a BioRad plate reader at 570 nm and a reference of 620 nm. […]
N2a-SwedishAPP cells are widely used as a cellular model of Alzheimer's disease, because they express a high level of APP and Aβ. The effects of HLJDT and its components on viability of N2SwedAPP cells are monitored by using the MTT assay. […]

For data set [2], the system named is APP processing (F1-APP, pAPPThr668, CTFs, sAPPα, sAPPβ-sw) in N2a-SwedAPP cells. Briefly: Western blot of APP metabolic products in N2a-SwedAPP cells. Type of data set: cell-based, murine. Set-up: key to Fl-APP (overall influence) / CTFs (overall influence) / sAPPα (overall influence) / sAPPβ (overall influence): ↓ decreased; ↑ increased; ? unchanged. On the procedure: as §1
To detect the levels of APP metabolic products, the cell lysates and the conditioned media were prepared as described in Durairajan S S K, Liu L F, Lu J H, Koo I, Maruyama K, Chung S K, Huang J D, Li M. (2011) Stimulation of non-amyloidogenic processing of amyloid-β protein precursor by cryptotanshinone involves activation and translocation of ADAM10 and PKC-α. J Alzheimer's Dis 25: 245-262, with minor modification. N2a-SwedAPP cells were seeded at a density of 4×10^5/mL in DMEM medium in a 6-well plate and cultured for 1 day. After transfer, cells were treated with different doses of RC, CP, FG and RS for 48 hours, then the extracellular media were collected for detection of sAPPα and sAPPβ-sw, and cells were harvested to quantify F1-APP and β-actin by Western blot analysis, as described previously by Durairajan et al. For intracellular APP, APP-CTFs and Aβ preparation, cells were washed with ice-cold PBS twice and solubilized in ice-cold RIPA buffer with protease inhibitor cocktail added. Lysates were collected and centrifuged at 16,000×g for 15 minutes at 4° C. The resulting supernatants were collected, and their protein concentrations were determined with bicinchoninic acid (BCA) protein assay reagent (Thermo Scientific, IL, USA). For sAPPα and sAPPβ-sw detection, the conditioned media are collected and frozen in liquid nitrogen, subjected to lyophilization at −40° C. under vacuum of 105 μbar for 2 days in order to remove all liquid. The conditioned media were standardized to total cell lysate protein.
For Western blot analysis from cell culture or mouse brain, 10-30 μg total protein is separated on 10% and 15% SDS-PAGE gels and blotted onto PVDF membranes for the detection of full length APP (F1-APP), CTFs, sAPPα, sAPPβ-sw, 3-actin and phosphorylated APP (pAPPThr668). After blocking with 5% skimmed milk, the blots are incubated with primary antibodies overnight at 4° C. with shaking. Blots are washed and incubated with HRP-conjugated secondary antibodies. The goat anti-mouse IgG is used when the primary antibody is 6E10 (1:1000), sAPPβ-sw (1:100), or anti-β-actin (1:5000), and the goat anti-rabbit IgG is used when the primary antibody is anti-CT15 (1:5000) or pAPPThr668 (1:1000). After incubation with HRP-conjugated secondary antibody, immunoblots are treated with ECL and developed using X-ray films (Fujifilm). Films are scanned, and the band intensity is analyzed using Image J software (NIH Image).
Stripped CT15 and 6E10 probed membranes are reincubated with pAPPThr668 and sAPPβ-sw 6A1 antibodies, respectively.
Western blotting of N2a-SwedAPP cells is used to test differences in the processing of Swedish mutant APP by HLJDT components. Several antibodies are used in Western blot analysis: CT15 recognizes full length APP (F1-APP), 6E10 identifies only α-secretase-cleaved APP i.e sAPPα, and the sAPPβ-sw specific for β-secretase cleavage of Swedish mutant APP.

Data set [3] concerns intracellular Aβ1-40 and Aβ1-42 in N2a-SwedAPP cells. Briefly: Sandwich ELISA of intracellular Aβ in N2a-SwedAPP cells. Type of data set: cell-based, murine. Further details: key to Aβs (overall influence): ↓ decreased; ↑ increased; ? unchanged.
Method: N2a-SwedAPP cells were seeded at a density of 4×10^5/mL in DMEM medium in a 6-well plate and cultured for 1 day. After transfer, cells were treated with different doses of RC, CP, FG and RS for 48 hours, then the extracellular media were collected for detection of sAPPα and sAPPβ-sw, and cells were harvested to quantify F1-APP and β-actin by Western blot analysis, as described previously by Durairajan et al. For intracellular APP, APP-CTFs and Aβ preparation, cells were washed with ice-cold PBS twice and solubilized in ice-cold RIPA buffer with protease inhibitor cocktail added. Lysates were collected and centrifuged at 16,000×g for 15 minutes at 4° C. The resulting supernatants were collected, and their protein concentrations were determined with bicinchoninic acid (BCA) protein assay reagent (Thermo Scientific, IL, USA). […] The conditioned media were standardized to total cell lysate protein.
The levels of intracellular Aβ1-40 and Aβ1-42 are quantified by using a sandwich ELISA as previously described by Durairajan et al., 2011 with minor modification. Equal amounts of cell or brain lysates are used for Aβ quantification by sandwich ELISA. The monoclonal antibody 6E10 is used as the capture antibody by adding to ELISA plates (0.2 μg diluted in 0.1 M Na2CO3 (pH 9.6) per well) and incubated overnight at 4° C. The plates are washed with PBS (0.05% Tween 20) and blocked with 4% BlockAce (Serotec, Raleigh, N.C., USA) for 2 hours at room temperature. Equilibrated protein lysates from each treatment (a 100 μL volume is adjusted in all treatment groups by using PBS) are applied in duplicate and incubated at room temperature for 2 hours with constant rotation at 30 rpm. Biotinylated monoclonal anti-Aβ40 5C3 (50 ng per well) and biotinylated monoclonal 8G7 (50 ng per well) antibodies are used for detection of Aβ1-40 and Aβ1-42, respectively, and are diluted in 1% BlockAce and incubated for 2 hours at room temperature. Plates are thoroughly washed with PBS (0.05% Tween 20), and streptavidin conjugated HRP is added for 1 hour at room temperature. Finally the plates are washed four times with PBST before adding the substrate TMB for 30 minutes. Absorbance at 450 nm is measured in duplicate wells after addition of 2 M H2SO4. All ELISA experimental data are from three different days. Synthetic Aβ40 and Aβ42 peptides are used for construction of calibration curves, and Aβ is measured in lysates.
Data set [4] has as its system TgCRND8 mice. The following applies: chronic administration; cited from earlier work.

For the compound `COc1ccc2cc3[n+](cc2c1OC)CCc1cc2c(cc1-3)OCO2` [berberine], the “non-toxic concentration (highest concentration that shows greater than 90% cell viability)” value in data set [1] turned out to be 12.5 µM. For the same compound, in data set [2] (6.25 μM, 48 hours), the “reduction of sAPPα level” value is on record as 30% and the “reduction of sAPPβ-sw level” value is on record as 45%. In data set [2] (12.5 μM, 48 hours), the “reduction of CTFs level” value is on record as 67%, the “reduction of F1-APP level” value is given as 54%, the “reduction of pAPPThr668 level” value came to 42% and the “reduction of sAPPα level” value is 58%. Besides, in data set [2] (12.5 μM, 48 hours), the “reduction of sAPPβ-sw level” value is recorded as 70%. In data set [2] (N2a-SwedAPP cells), the “CTFs (overall influence)” value was “↓”, the “Fl-APP (overall influence)” value is on record as “↓”, the “sAPPα (overall influence)” value is “↓” and the “sAPPβ (overall influence)” value is listed as “↓”. In data set [3] (12.5 μM, 48 h), the “reduction of intracellular Aβ1-40” value came to 37% and the “reduction of intracellular Aβ1-42” value came out at 25%. Moreover, the “Aβs (overall influence)” value in data set [3] (N2a-SwedAPP cells) is given as “↓”. Moreover, the “effect on Aβ pathology, gliosis and cognitive impairments” value in data set [4] was “significantly reduce”.
